According to patent publication US12281149B2, “Modulators of G-protein coupled receptors” (priority 2021, dated 2025):
Read-outs that look alike come from different tables or passages of the source. *1 amine or outer side, *2 acyl side, *3 side chain or, on linkers, in order; H or OH if unused. Where a SMILES comes first, the peptide text is derived from it. Side-chain parts run from the residue outwards. [ ]: non-standard residue; d: D form. The star is where a group is joined. Isobutyryl(2-(3-CN-5-F-Ph)) = CC(C)(C(=O)*)c1cc(F)cc(C#N)c1; C20 diacid = O=C(O)CCCCCCCCCCCCCCCCCCC(=O)*; γGlu = O=C(O)[C@H](CCC(=O)[*:2])N[*:1]; NH(3-MeOPh) = COc1cccc(N*)c1; X10 = Clc1cccc(N*)c1Cl; AEEA = NCCOCCOCC(=O)O; Aib = CC(C)(N)C(=O)O; CO = O=C([*:1])[*:2]; X12 = Fc1cccc(N*)c1; GABA = NCCCC(=O)O; βAla = NCCC(=O)O

Columns and labels:
Assay type in all cases: cell-based
GLP-1 receptor [1] = target: T1, GLP-1 receptor (Homo sapiens, UniProt P43220); experiment: PathHunter β-arrestin assay, GLP-1 receptor; set-up: host or cells: PathHunter CHO-K1 GLP1R β-Arrestin Cell Line; details: β-arrestin-2 recruitment, PathHunter CHO-K1 GLP1R β-Arrestin Cell Line, 90 min at 37° C.; normalized to GLP-1; read-out: GLP-1R β Arrestin EC50
T1 sequence (P43220 24-463): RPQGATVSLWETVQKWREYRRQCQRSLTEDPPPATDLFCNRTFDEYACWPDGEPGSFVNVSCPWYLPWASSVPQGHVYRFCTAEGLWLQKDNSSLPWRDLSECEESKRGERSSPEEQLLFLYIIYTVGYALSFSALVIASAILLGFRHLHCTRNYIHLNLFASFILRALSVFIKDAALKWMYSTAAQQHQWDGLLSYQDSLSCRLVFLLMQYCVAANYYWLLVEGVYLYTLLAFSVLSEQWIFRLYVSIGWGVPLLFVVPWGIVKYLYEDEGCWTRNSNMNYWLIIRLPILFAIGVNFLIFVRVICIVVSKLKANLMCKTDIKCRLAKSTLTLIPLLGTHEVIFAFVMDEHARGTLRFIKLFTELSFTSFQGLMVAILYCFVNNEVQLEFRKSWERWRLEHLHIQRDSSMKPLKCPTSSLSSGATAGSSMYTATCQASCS

GIP receptor [2] = target: T2, GIP receptor (Homo sapiens, UniProt P48546); experiment: HitHunter cAMP assay, GIP receptor; details: for EC50: CHO cells stably expressing GIP receptor, cAMP accumulation, 30 min, read-out: EC50 GIP-1R; for Emax: read-out: Emax GIP-1R
T2 sequence (P48546 22-466): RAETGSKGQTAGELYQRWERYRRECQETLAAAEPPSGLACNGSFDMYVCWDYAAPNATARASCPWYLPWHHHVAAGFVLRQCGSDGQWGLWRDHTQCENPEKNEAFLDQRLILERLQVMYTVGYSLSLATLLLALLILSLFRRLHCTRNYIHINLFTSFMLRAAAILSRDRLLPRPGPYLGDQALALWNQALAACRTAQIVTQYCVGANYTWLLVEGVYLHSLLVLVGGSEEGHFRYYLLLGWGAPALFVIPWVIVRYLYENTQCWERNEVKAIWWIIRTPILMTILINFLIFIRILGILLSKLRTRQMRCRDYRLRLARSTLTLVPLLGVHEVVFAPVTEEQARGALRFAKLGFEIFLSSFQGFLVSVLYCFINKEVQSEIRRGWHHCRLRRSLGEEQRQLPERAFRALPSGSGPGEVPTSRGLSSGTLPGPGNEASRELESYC

GLP-1 receptor [3] = target: T1, GLP-1 receptor; experiment: HitHunter cAMP assay, GLP-1 receptor; details: for EC50: CHO cells stably expressing human GLP-1 receptor, cAMP accumulation, 30 min, read-out: EC50 GLP-1R; for Emax: read-out: Emax GLP-1R
GIP receptor [4] = target: T2, GIP receptor; experiment: PathHunter β-arrestin assay, GIP receptor; set-up: host or cells: PathHunter CHO-K1 GIPR β-Arrestin Cell Line; details: β-arrestin-2 recruitment, PathHunter CHO-K1 GIPR β-Arrestin Cell Line, 90 min at 37° C.; normalized to GIP; read-out: GIPR β Arrestin EC50
[5] = CHO cells, cAMP, normalized to maximum signal from GIP (high) and DMSO (low)
[6] = CHO cells, cAMP, normalized to maximum signal from GLP-1 (high) and DMSO (low)

| SMILES | EC50 (GLP-1 receptor [1]) [nM] | EC50 (GIP receptor [2]) [nM] | Emax (GIP receptor [2]; [5]) [%] | EC50 (GLP-1 receptor [3]) [nM] | Emax (GLP-1 receptor [3]; [6]) [%] | EC50 (GIP receptor [4]) [nM] | Emax (GIP receptor [2]; CHO) [%] | Emax (GLP-1 receptor [3]; CHO) [%] |
| --- | --- | --- | --- | --- | --- | --- | --- | --- |
| CC[C@H](C)[C@H](NC(=O)[C@H](CO)NC(=O)[C@H](Cc1ccc(O)cc1)NC(=O)[C@H](CC(=O)O)NC(=O)[C@H](CO)NC(=O)[C@@H](NC(=O)[C@H](Cc1ccccc1)NC(=O)[C@@H](NC(=O)CNC(=O)[C@H](CCC(=O)O)NC(=O)CCNC(=O)[C@]1(c2ccccc2)CNC(=O)C1)[C@@H](C)O)[C@@H](C)O)C(=O)N[C@@H](Cc1ccc(O)cc1)C(=O)N[C@@H](CC(C)C)C(=O)N[C@@H](CC(=O)O)C(=O)N[C@@H](CCCCN)C(=O)N[C@@H](CCC(N)=O)C(=O)N[C@@H](C)C(=O)N[C@@H](C)C(=O)NC(C)(C)C(=O)N[C@@H](CCC(=O)O)C(=O)N[C@@H](Cc1ccccc1)C(=O)N[C@H](C(=O)N[C@@H](CCCCNC(=O)COCCOCCNC(=O)COCCOCCNC(=O)CC[C@H](NC(=O)CCCCCCCCCCCCCCCCCCC(=O)O)C(=O)O)C(=O)N[C@@H](Cc1c[nH]c2ccccc12)C(=O)N[C@@H](CC(C)C)C(=O)N[C@@H](CC(C)C)C(=O)N[C@@H](C)C(=O)NCC(=O)NCC(=O)N1CCC[C@H]1C(=O)N[C@@H](CO)C(=O)N[C@@H](CO)C(=O)NCC(=O)N[C@@H](C)C(=O)N1CCC[C@H]1C(=O)N1CCC[C@H]1C(=O)N1CCC[C@H]1C(=O)N[C@@H](CO)C(N)=O)C(C)C (single isomer, unassigned) [Compound 102] | > 1000 | 1 to 10 | 101 | 0.1 to 1 | 91 | > 1000 | – | – |
| CC[C@H](C)[C@H](NC(=O)[C@H](CC(C)C)NC(=O)[C@H](Cc1c[nH]c2ccccc12)NC(=O)[C@H](CCC(N)=O)NC(=O)[C@@H](NC(=O)[C@H](Cc1ccccc1)NC(=O)[C@H](C)NC(=O)[C@H](CCCCNC(=O)COCCOCCNC(=O)COCCOCCNC(=O)CC[C@H](NC(=O)CCCCCCCCCCCCCCCCCCC(=O)O)C(=O)O)NC(=O)[C@H](CCC(N)=O)NC(=O)[C@H](C)NC(=O)[C@@H](NC(=O)[C@H](CCCNC(=N)N)NC(=O)[C@H](CC(=O)O)NC(=O)[C@H](CC(C)C)NC(=O)C(C)(C)NC(=O)[C@@H](NC(=O)[C@H](CO)NC(=O)[C@H](Cc1ccc(O)cc1)NC(=O)[C@H](CC(=O)O)NC(=O)[C@H](CO)NC(=O)[C@@H](NC(=O)[C@H](Cc1ccccc1)NC(=O)[C@@H](NC(=O)CNC(=O)[C@H](CCC(=O)O)NC(=O)CCNC(=O)C(C)(C)c1cc(F)cc(C#N)c1)[C@@H](C)O)[C@@H](C)O)[C@@H](C)CC)[C@@H](C)CC)C(C)C)C(=O)N[C@@H](C)C(=O)NCC(=O)NCC(=O)N1CCC[C@H]1C(=O)N[C@@H](CO)C(=O)N[C@@H](CO)C(=O)NCC(=O)N[C@@H](C)C(=O)N1CCC[C@H]1C(=O)N1CCC[C@H]1C(=O)N1CCC[C@H]1C(=O)N[C@@H](CO)C(N)=O [Compound 242] ({Isobutyryl(2-(3-CN-5-F-Ph))-βAla}-EGTFTSDYSI[Aib]LDRIAQK([AEEA-AEEA-γGlu-C20 diacid])AFVQWLIAGGPSSGAPPPS-NH2) | > 1000 | 10 to 100 | 115 | 0.1 to 1 | 99 | – | – | – |
| CC[C@H](C)[C@H](NC(=O)[C@H](CC(C)C)NC(=O)[C@H](Cc1c[nH]c2ccccc12)NC(=O)[C@H](CCC(N)=O)NC(=O)[C@@H](NC(=O)[C@H](Cc1ccccc1)NC(=O)[C@H](C)NC(=O)[C@H](CCCCNC(=O)COCCOCCNC(=O)COCCOCCNC(=O)CC[C@H](NC(=O)CCCCCCCCCCCCCCCCCCC(=O)O)C(=O)O)NC(=O)[C@H](CCC(N)=O)NC(=O)[C@H](C)NC(=O)[C@@H](NC(=O)[C@H](CCCCN)NC(=O)[C@H](CC(=O)O)NC(=O)[C@H](CC(C)C)NC(=O)C(C)(C)NC(=O)[C@@H](NC(=O)[C@H](CO)NC(=O)[C@H](Cc1ccc(O)cc1)NC(=O)[C@H](CC(=O)O)NC(=O)[C@H](CO)NC(=O)[C@@H](NC(=O)[C@H](Cc1ccccc1)NC(=O)[C@@H](NC(=O)CNC(=O)[C@H](CCC(=O)O)NC(=O)CCCNC(=O)CNC(=O)Nc1cccc(F)c1)[C@@H](C)O)[C@@H](C)O)[C@@H](C)CC)[C@@H](C)CC)C(C)C)C(=O)N[C@@H](C)C(=O)NCC(=O)NCC(=O)N1CCC[C@H]1C(=O)N[C@@H](CO)C(=O)N[C@@H](CO)C(=O)NCC(=O)N[C@@H](C)C(=O)N1CCC[C@H]1C(=O)N1CCC[C@H]1C(=O)N1CCC[C@H]1C(=O)N[C@@H](CO)C(N)=O [Compound 260] ({X12-CO}-G[GABA]EGTFTSDYSI[Aib]LDKIAQK([AEEA-AEEA-γGlu-C20 diacid])AFVQWLIAGGPSSGAPPPS-NH2; C-terminus assumed) | – | – | 107 | – | 124 | – | – | – |
| CC[C@H](C)[C@H](NC(=O)[C@H](CC(C)C)NC(=O)[C@H](Cc1c[nH]c2ccccc12)NC(=O)[C@H](CCC(N)=O)NC(=O)[C@@H](NC(=O)[C@H](Cc1ccccc1)NC(=O)[C@H](C)NC(=O)[C@H](CCCCNC(=O)COCCOCCNC(=O)COCCOCCNC(=O)CC[C@H](NC(=O)CCCCCCCCCCCCCCCCCCC(=O)O)C(=O)O)NC(=O)[C@H](CCC(N)=O)NC(=O)[C@H](C)NC(=O)[C@@H](NC(=O)[C@H](CCCCN)NC(=O)[C@H](CC(=O)O)NC(=O)[C@H](CC(C)C)NC(=O)C(C)(C)NC(=O)[C@@H](NC(=O)[C@H](CO)NC(=O)[C@H](Cc1ccc(O)cc1)NC(=O)[C@H](CC(=O)O)NC(=O)[C@H](CO)NC(=O)[C@@H](NC(=O)[C@H](Cc1ccccc1)NC(=O)[C@@H](NC(=O)CNC(=O)[C@H](CCC(=O)O)NC(=O)CCCNC(=O)CNC(=O)Nc1cccc(OC)c1)[C@@H](C)O)[C@@H](C)O)[C@@H](C)CC)[C@@H](C)CC)C(C)C)C(=O)N[C@@H](C)C(=O)NCC(=O)NCC(=O)N1CCC[C@H]1C(=O)N[C@@H](CO)C(=O)N[C@@H](CO)C(=O)NCC(=O)N[C@@H](C)C(=O)N1CCC[C@H]1C(=O)N1CCC[C@H]1C(=O)N1CCC[C@H]1C(=O)N[C@@H](CO)C(N)=O [Compound 261] ({NH(3-MeOPh)-CO}-G[GABA]EGTFTSDYSI[Aib]LDKIAQK([AEEA-AEEA-γGlu-C20 diacid])AFVQWLIAGGPSSGAPPPS-NH2; C-terminus assumed) | – | – | 107 | – | 106 | – | – | – |
| CC[C@H](C)[C@H](NC(=O)[C@H](CC(C)C)NC(=O)[C@H](Cc1c[nH]c2ccccc12)NC(=O)[C@H](CCC(N)=O)NC(=O)[C@@H](NC(=O)[C@H](Cc1ccccc1)NC(=O)[C@H](C)NC(=O)[C@H](CCCCNC(=O)COCCOCCNC(=O)COCCOCCNC(=O)CC[C@H](NC(=O)CCCCCCCCCCCCCCCCCCC(=O)O)C(=O)O)NC(=O)[C@H](CCC(N)=O)NC(=O)[C@H](C)NC(=O)[C@@H](NC(=O)[C@H](CCCCN)NC(=O)[C@H](CC(=O)O)NC(=O)[C@H](CC(C)C)NC(=O)C(C)(C)NC(=O)[C@@H](NC(=O)[C@H](CO)NC(=O)[C@H](Cc1ccc(O)cc1)NC(=O)[C@H](CC(=O)O)NC(=O)[C@H](CO)NC(=O)[C@@H](NC(=O)[C@H](Cc1ccccc1)NC(=O)[C@@H](NC(=O)CNC(=O)[C@H](CCC(=O)O)NC(=O)CCCNC(=O)CNC(=O)Nc1cccc(Cl)c1Cl)[C@@H](C)O)[C@@H](C)O)[C@@H](C)CC)[C@@H](C)CC)C(C)C)C(=O)N[C@@H](C)C(=O)NCC(=O)NCC(=O)N1CCC[C@H]1C(=O)N[C@@H](CO)C(=O)N[C@@H](CO)C(=O)NCC(=O)N[C@@H](C)C(=O)N1CCC[C@H]1C(=O)N1CCC[C@H]1C(=O)N1CCC[C@H]1C(=O)N[C@@H](CO)C(N)=O [Compound 262] ({X10-CO}-G[GABA]EGTFTSDYSI[Aib]LDKIAQK([AEEA-AEEA-γGlu-C20 diacid])AFVQWLIAGGPSSGAPPPS-NH2; C-terminus assumed) | – | – | – | – | – | – | 106 | 90 |
